Experimental data from paper PMC5218480 (PLoS ONE, 2017).

Test system: MV-4-11 cells
Assay: Gene expression microarray analysis (Affymetrix PrimeView) and GSEA
Type: cell-based, human
Parameters: RFU PODN (11730768_x_at) / Fold change /veh PODN (11730768_x_at) / RFU LINC00158 (11744669_a_at) / Fold change /veh LINC00158 (11744669_a_at) / RFU DUSP10 (11751237_a_at) / Fold change /veh DUSP10 (11751237_a_at) / RFU ID3 (11757404_x_at) / Fold change /veh ID3 (11757404_x_at) / RFU PLEKHG5 (11737974_s_at) / Fold change /veh PLEKHG5 (11737974_s_at) / RFU LRRC4B (11730491_at) / Fold change /veh LRRC4B (11730491_at) / RFU GIMAP4 (11747438_a_at) / Fold change /veh GIMAP4 (11747438_a_at) / RFU KRT8 (11758183_x_at) / Fold change /veh KRT8 (11758183_x_at) / RFU CNN1 (11734310_a_at) / Fold change /veh CNN1 (11734310_a_at) / RFU VPS37D (11726825_at) / Fold change /veh VPS37D (11726825_at) / RFU C10orf10 (11716522_x_at) / Fold change /veh C10orf10 (11716522_x_at) / RFU KIR2DL2 /// KIR2DL4 /// KIR2DL5A /// KIR2DL5B /// KIR2DS1 /// KIR2DS2 /// KIR2DS3 /// KIR2DS4 /// KIR3DL3 /// KIR3DL3 /// KIR3DS1 (11738374_at) / Fold change /veh KIR2DL2 /// KIR2DL4 /// KIR2DL5A /// KIR2DL5B /// KIR2DS1 /// KIR2DS2 /// KIR2DS3 /// KIR2DS4 /// KIR3DL3 /// KIR3DL3 /// KIR3DS1 (11738374_at) / RFU C1QL1 (11718748_at) / Fold change /veh C1QL1 (11718748_at) / RFU TMPRSS4 (11747572_a_at) / Fold change /veh TMPRSS4 (11747572_a_at) / RFU HAMP (11756126_x_at) / Fold change /veh HAMP (11756126_x_at) / RFU RNFT2 (11725882_a_at) / Fold change /veh RNFT2 (11725882_a_at) / RFU NR4A2 (11747474_a_at) / Fold change /veh NR4A2 (11747474_a_at) / RFU ABCC12 (11746883_a_at) / Fold change /veh ABCC12 (11746883_a_at) / RFU TMEM136 (11760407_x_at) / Fold change /veh TMEM136 (11760407_x_at) / RFU CLDN22 /// WWC2 (11732394_at) / Fold change /veh CLDN22 /// WWC2 (11732394_at) / RFU HLA-DPB1 (11760878_x_at) / Fold change /veh HLA-DPB1 (11760878_x_at) / RFU SPINT1 (11716480_a_at) / Fold change /veh SPINT1 (11716480_a_at) / RFU GAP43 (11754022_s_at) / Fold change /veh GAP43 (11754022_s_at) / RFU A4GNT (11735810_at) / Fold change /veh A4GNT (11735810_at) / RFU PRB3 (11715151_x_at) / Fold change /veh PRB3 (11715151_x_at) / RFU TUBB4B (11761932_at) / Fold change /veh TUBB4B (11761932_at) / RFU CAPN14 (11732068_a_at) / Fold change /veh CAPN14 (11732068_a_at) / RFU TMCC2 (11721928_a_at) / Fold change /veh TMCC2 (11721928_a_at) / RFU IRGQ (11745062_a_at) / Fold change /veh IRGQ (11745062_a_at) / RFU FAM174B (11720279_a_at) / Fold change /veh FAM174B (11720279_a_at) / RFU TMPRSS4 (11748680_a_at) / Fold change /veh TMPRSS4 (11748680_a_at) / RFU FAM212B (11763350_a_at) / Fold change /veh FAM212B (11763350_a_at) / RFU PLEKHG5 (11743358_a_at) / Fold change /veh PLEKHG5 (11743358_a_at) / RFU ZSCAN30 (11745921_a_at) / Fold change /veh ZSCAN30 (11745921_a_at) / RFU CMKLR1 (11741424_a_at) / Fold change /veh CMKLR1 (11741424_a_at) / RFU LOC101060620 /// MAPK8IP1 (11723275_at) / Fold change /veh LOC101060620 /// MAPK8IP1 (11723275_at) / RFU SPTSSB (11747773_x_at) / Fold change /veh SPTSSB (11747773_x_at) / RFU PRSS12 (11739890_at) / Fold change /veh PRSS12 (11739890_at) / RFU BIN1 (11741810_x_at) / Fold change /veh BIN1 (11741810_x_at) / RFU WNT11 (11732464_a_at) / Fold change /veh WNT11 (11732464_a_at) / RFU C10orf10 (11716521_a_at) / Fold change /veh C10orf10 (11716521_a_at) / RFU C5orf56 (11738089_at) / Fold change /veh C5orf56 (11738089_at) / RFU CYB561 (11721691_x_at) / Fold change /veh CYB561 (11721691_x_at) / RFU ANKRD19P (11752326_a_at) / Fold change /veh ANKRD19P (11752326_a_at) / RFU OR2T12 /// OR2T33 /// OR2T8 (11738714_s_at) / Fold change /veh OR2T12 /// OR2T33 /// OR2T8 (11738714_s_at) / RFU VCAN (11748164_a_at) / Fold change /veh VCAN (11748164_a_at) / RFU JSRP1 (11732532_at) / Fold change /veh JSRP1 (11732532_at) / RFU KRTAP10-11 (11738290_x_at) / Fold change /veh KRTAP10-11 (11738290_x_at) / RFU MYO3A (11730013_a_at) / Fold change /veh MYO3A (11730013_a_at) / RFU EBF3 (11725865_a_at) / Fold change /veh EBF3 (11725865_a_at) / RFU CAMK2N1 (11719241_x_at) / Fold change /veh CAMK2N1 (11719241_x_at) / RFU C5orf56 (11738088_a_at) / Fold change /veh C5orf56 (11738088_a_at) / RFU OLFML3 (11715873_a_at) / Fold change /veh OLFML3 (11715873_a_at) / RFU LOC100653217 /// NTM (11731650_a_at) / Fold change /veh LOC100653217 /// NTM (11731650_a_at) / RFU MAPK11 (11762145_a_at) / Fold change /veh MAPK11 (11762145_a_at) / RFU FIZ1 (11724087_x_at) / Fold change /veh FIZ1 (11724087_x_at) / RFU OASL (11726364_x_at) / Fold change /veh OASL (11726364_x_at) / RFU SOX15 (11748057_x_at) / Fold change /veh SOX15 (11748057_x_at) / RFU CD79A (11719716_a_at) / Fold change /veh CD79A (11719716_a_at) / RFU HIST1H1D (11736915_at) / Fold change /veh HIST1H1D (11736915_at) / RFU CASKIN2 (11723855_a_at) / Fold change /veh CASKIN2 (11723855_a_at) / RFU LOC730098 (11760151_x_at) / Fold change /veh LOC730098 (11760151_x_at) / RFU OR4N2 (11742367_at) / Fold change /veh OR4N2 (11742367_at) / RFU PRRT2 (11749266_a_at) / Fold change /veh PRRT2 (11749266_a_at) / RFU SNX32 (11753110_a_at) / Fold change /veh SNX32 (11753110_a_at) / RFU CDHR5 (11726645_a_at) / Fold change /veh CDHR5 (11726645_a_at) / RFU RCAN1 (11760418_a_at) / Fold change /veh RCAN1 (11760418_a_at) / RFU FAM167A (11723789_a_at) / Fold change /veh FAM167A (11723789_a_at) / RFU FAM26E (11764081_at) / Fold change /veh FAM26E (11764081_at) / RFU ISYNA1 (11749810_s_at) / Fold change /veh ISYNA1 (11749810_s_at) / RFU ACY1 (11761880_at) / Fold change /veh ACY1 (11761880_at) / RFU 11764098_at / Fold change /veh 11764098_at / RFU SAMD14 (11745864_x_at) / Fold change /veh SAMD14 (11745864_x_at) / RFU NPB (11741838_a_at) / Fold change /veh NPB (11741838_a_at) / RFU TMPRSS6 (11731388_a_at) / Fold change /veh TMPRSS6 (11731388_a_at) / RFU KRTAP10-2 (11738614_at) / Fold change /veh KRTAP10-2 (11738614_at) / RFU ARHGAP8 /// PRR5-ARHGAP8 (11727945_x_at) / Fold change /veh ARHGAP8 /// PRR5-ARHGAP8 (11727945_x_at) / RFU KRTAP5-7 /// NADSYN1 (11734609_at) / Fold change /veh KRTAP5-7 /// NADSYN1 (11734609_at) / RFU RASL12 (11751679_a_at) / Fold change /veh RASL12 (11751679_a_at) / RFU CDKN2B (11736163_a_at) / Fold change /veh CDKN2B (11736163_a_at) / RFU PRF1 (11729649_at) / Fold change /veh PRF1 (11729649_at) / RFU, ZNF638 /// ZNF638-IT1 / Fold change vs veh, ZNF638 /// ZNF638-IT1 / RFU, PANK3 / Fold change vs veh, PANK3 / RFU, SH3YL1 / Fold change vs veh, SH3YL1 / RFU, ZEB2 / Fold change vs veh, ZEB2 / RFU, NRIP1 / Fold change vs veh, NRIP1 / RFU, PTTG1IP / Fold change vs veh, PTTG1IP / RFU, CAPN2 / Fold change vs veh, CAPN2 / RFU, MED14 / Fold change vs veh, MED14 / RFU, SNORA58 / Fold change vs veh, SNORA58 / RFU, C1orf63 / Fold change vs veh, C1orf63 / RFU, LRRFIP1 / Fold change vs veh, LRRFIP1 / RFU, NDUFAF7 / Fold change vs veh, NDUFAF7 / RFU, SLC12A2 / Fold change vs veh, SLC12A2 / RFU, IBTK / Fold change vs veh, IBTK / RFU, ESF1 / Fold change vs veh, ESF1 / Fold change vs veh, TMEM50B / RFU, TAOK1 / Fold change vs veh, TAOK1 / RFU, ACBD3 / Fold change vs veh, ACBD3 / RFU, TMA16 / Fold change vs veh, TMA16 / RFU, RWDD3 / Fold change vs veh, RWDD3 / RFU, BCAT1 / Fold change vs veh, BCAT1 / RFU, EDEM3 / Fold change vs veh, EDEM3 / RFU, TMEM33 / Fold change vs veh, TMEM33 / RFU, WDR75 / Fold change vs veh, WDR75 / RFU, AHCTF1 / Fold change vs veh, AHCTF1 / RFU, TFRC / Fold change vs veh, TFRC / RFU, ZDHHC17 / Fold change vs veh, ZDHHC17 / RFU, NOM1 / Fold change vs veh, NOM1 / RFU, ARL8B / Fold change vs veh, ARL8B / RFU, ZBTB11 / Fold change vs veh, ZBTB11 / RFU, TAMM41 / Fold change vs veh, TAMM41 / RFU, KIAA1704 /// LOC100996395 / Fold change vs veh, KIAA1704 /// LOC100996395 / RFU, ING1 / Fold change vs veh, ING1 / RFU, TRMT61B / Fold change vs veh, TRMT61B / RFU, FUBP3 / Fold change vs veh, FUBP3 / RFU, TP53 / Fold change vs veh, TP53 / RFU, TNKS2 / Fold change vs veh, TNKS2 / RFU, ZFP14 / Fold change vs veh, ZFP14 / RFU, ACTR2 / Fold change vs veh, ACTR2 / RFU, PPP3R1 / Fold change vs veh, PPP3R1 / RFU, PIK3R1 / Fold change vs veh, PIK3R1 / RFU, HNRNPA1 / Fold change vs veh, HNRNPA1 / RFU, RNF170 / Fold change vs veh, RNF170 / RFU, ZNF28 / Fold change vs veh, ZNF28 / RFU, RNGTT / Fold change vs veh, RNGTT / RFU, OGT / Fold change vs veh, OGT / RFU, BRD1 / Fold change vs veh, BRD1 / RFU, MARS / Fold change vs veh, MARS / RFU, ZNF655 / Fold change vs veh, ZNF655 / RFU, FAHD1 / Fold change vs veh, FAHD1 / RFU, BDP1 / Fold change vs veh, BDP1 / RFU, LRRCC1 / Fold change vs veh, LRRCC1 / RFU, ARID1A / Fold change vs veh, ARID1A / RFU, ZNF146 / Fold change vs veh, ZNF146 / RFU, ZNF330 / Fold change vs veh, ZNF330 / RFU, GPN3 / Fold change vs veh, GPN3 / RFU, C9orf123 / Fold change vs veh, C9orf123 / RFU, N4BP2L2 / Fold change vs veh, N4BP2L2 / RFU, ARFIP1 / Fold change vs veh, ARFIP1 / RFU, FAM179B / Fold change vs veh, FAM179B / RFU, BCL10 / Fold change vs veh, BCL10 / RFU, UHRF1BP1L / Fold change vs veh, UHRF1BP1L / RFU, BET1 / Fold change vs veh, BET1 / RFU, CNOT2 / Fold change vs veh, CNOT2 / RFU, ZNF268 / Fold change vs veh, ZNF268 / Fold change vs veh, ZNF507 / RFU, DGCR2 / Fold change vs veh, DGCR2 / RFU, WDSUB1 / Fold change vs veh, WDSUB1 / Fold change vs veh, HSP90B1 /// MIR3652 / RFU, ADSS / Fold change vs veh, ADSS / RFU, GK / Fold change vs veh, GK / RFU, ZNF148 / Fold change vs veh, ZNF148 / RFU, TAF9 / Fold change vs veh, TAF9 / RFU, SLC1A5 / Fold change vs veh, SLC1A5 / RFU, SLMO2 / Fold change vs veh, SLMO2 / RFU, ABCC4 / Fold change vs veh, ABCC4 / RFU, LOC101060439 /// RAP1B / Fold change vs veh, LOC101060439 /// RAP1B / RFU, RFX7 / Fold change vs veh, RFX7 / RFU, GTPBP10 / Fold change vs veh, GTPBP10 / RFU, CNEP1R1 / Fold change vs veh, CNEP1R1 / RFU, BIVM-ERCC5 /// ERCC5 / Fold change vs veh, BIVM-ERCC5 /// ERCC5 / RFU, ILF3 / Fold change vs veh, ILF3 / RFU 11762660_at / Fold change /veh 11762660_at / RFU VCAN (11757783_s_at) / Fold change /veh VCAN (11757783_s_at) / RFU DDX43 (11728927_at) / Fold change /veh DDX43 (11728927_at) / RFU KRT8 (11758188_x_at) / Fold change /veh KRT8 (11758188_x_at) / RFU NKD1 (11759106_at) / Fold change /veh NKD1 (11759106_at) / RFU SRD5A1 (11742802_a_at) / Fold change /veh SRD5A1 (11742802_a_at) / RFU TPSAB1 /// TPSB2 (11721975_s_at) / Fold change /veh TPSAB1 /// TPSB2 (11721975_s_at) / RFU GSTM3 (11746129_a_at) / Fold change /veh GSTM3 (11746129_a_at) / RFU IL23R (11737362_x_at) / Fold change /veh IL23R (11737362_x_at) / RFU TMEM51 (11727254_a_at) / Fold change /veh TMEM51 (11727254_a_at) / RFU PIWIL2 (11732686_x_at) / Fold change /veh PIWIL2 (11732686_x_at) / RFU ORM1 (11744905_x_at) / Fold change /veh ORM1 (11744905_x_at) / RFU CCDC152 (11743942_at) / Fold change /veh CCDC152 (11743942_at) / RFU ECM1 (11717891_a_at) / Fold change /veh ECM1 (11717891_a_at) / RFU IL23R (11748794_a_at) / Fold change /veh IL23R (11748794_a_at) / RFU TNFAIP8L3 (11732012_x_at) / Fold change /veh TNFAIP8L3 (11732012_x_at) / RFU MBOAT4 (11741988_at) / Fold change /veh MBOAT4 (11741988_at) / RFU 11764193_at / Fold change /veh 11764193_at / RFU TMEM53 (11763286_at) / Fold change /veh TMEM53 (11763286_at) / RFU MAGEB2 (11727129_at) / Fold change /veh MAGEB2 (11727129_at) / RFU TMEM200A (11744735_a_at) / Fold change /veh TMEM200A (11744735_a_at) / RFU CCDC152 (11751479_a_at) / Fold change /veh CCDC152 (11751479_a_at) / RFU FAM211A (11726209_a_at) / Fold change /veh FAM211A (11726209_a_at) / RFU RGS16 (11746705_a_at) / Fold change /veh RGS16 (11746705_a_at) / RFU VCAN (11755009_s_at) / Fold change /veh VCAN (11755009_s_at) / RFU RHOB (11743442_s_at) / Fold change /veh RHOB (11743442_s_at) / RFU RGS16 (11720943_a_at) / Fold change /veh RGS16 (11720943_a_at) / RFU RGS16 (11720944_at) / Fold change /veh RGS16 (11720944_at) / RFU, VPS4B / Fold change vs veh, VPS4B / RFU, CREB1 / Fold change vs veh, CREB1 / RFU, DNAJC13 / Fold change vs veh, DNAJC13 / RFU, GNAQ / Fold change vs veh, GNAQ / RFU, CDK5R1 / Fold change vs veh, CDK5R1 / RFU, ZRANB3 / Fold change vs veh, ZRANB3 / RFU, CUL4A / Fold change vs veh, CUL4A / RFU, CCNY / Fold change vs veh, CCNY / RFU, UFL1 / Fold change vs veh, UFL1 / RFU, COG3 / Fold change vs veh, COG3 / RFU, DIAPH2 / Fold change vs veh, DIAPH2 / RFU, SKA2 / Fold change vs veh, SKA2 / RFU, AFF3 / Fold change vs veh, AFF3 / RFU, LMF1 / Fold change vs veh, LMF1 / RFU, IPO11 / Fold change vs veh, IPO11 / RFU, DFFB / Fold change vs veh, DFFB / RFU, FOXP1 / Fold change vs veh, FOXP1 / RFU, CARD8 / Fold change vs veh, CARD8 / RFU, STRN3 / Fold change vs veh, STRN3 / RFU, ADK / Fold change vs veh, ADK / RFU, RASSF2 / Fold change vs veh, RASSF2 / RFU, WIPF1 / Fold change vs veh, WIPF1 / RFU, LARP1B / Fold change vs veh, LARP1B / RFU, RASA1 / Fold change vs veh, RASA1 / RFU, RB1 / Fold change vs veh, RB1 / RFU, PPFIA1 / Fold change vs veh, PPFIA1 / RFU, MAT2A / Fold change vs veh, MAT2A / RFU, CCT5 / Fold change vs veh, CCT5 / RFU, WDR92 / Fold change vs veh, WDR92 / RFU, CUX1 / Fold change vs veh, CUX1 / RFU, TTC7A / Fold change vs veh, TTC7A / RFU, TMEM135 / Fold change vs veh, TMEM135 / RFU, DEPTOR / Fold change vs veh, DEPTOR / RFU, CPM / Fold change vs veh, CPM / RFU, DNAJB6 / Fold change vs veh, DNAJB6 / RFU, CACNA2D3 / Fold change vs veh, CACNA2D3 / RFU, DTX4 / Fold change vs veh, DTX4 / RFU, TFCP2 / Fold change vs veh, TFCP2 / RFU, GMCL1 /// GMCL1P1 / Fold change vs veh, GMCL1 /// GMCL1P1 / RFU, AEBP2 / Fold change vs veh, AEBP2 / RFU, SNHG1 /// SNORD22 /// SNORD25 /// SNORD26 /// SNORD27 /// SNORD28 /// SNORD29 /// SNORD31 / Fold change vs veh, SNHG1 /// SNORD22 /// SNORD25 /// SNORD26 /// SNORD27 /// SNORD28 /// SNORD29 /// SNORD31 / Fold change (Aza/veh), C12orf56 (ProbeSet 11735607_a_at) / Fold change (ACY-1035/veh), C12orf56 (ProbeSet 11735607_a_at) / Fold change (Aza/veh), FGFR1OP (ProbeSet 11751329_s_at) / Fold change (ACY-1035/veh), FGFR1OP (ProbeSet 11751329_s_at) / Fold change (Aza/veh), VPS36 (ProbeSet 11739960_a_at) / Fold change (ACY-1035/veh), VPS36 (ProbeSet 11739960_a_at) / RFU SYPL1 (11715823_x_at) / Fold change /veh SYPL1 (11715823_x_at) / RFU IGFBP7 (11715501_s_at) / Fold change /veh IGFBP7 (11715501_s_at) / RFU REEP3 (11722064_at) / Fold change /veh REEP3 (11722064_at) / RFU IGLL1 (11728026_x_at) / Fold change /veh IGLL1 (11728026_x_at): dose or concentration left out as unconfirmed
Conditions: MV-4-11 cells, 48 hours

Question: Nc1ccc(-c2cccs2)cc1NC(=O)c1ccc2c(c1)cc(C1CC1)n2CCN1CCOCC1 [ACY-1035] was tested. Which “RFU TMPRSS4 (11748680_a_at)” value did it give?
Answer: 52.95 RFU
